Test systems include K-562 leukemia; 786-0 renal; PC-3 prostate; U251 CNS; SN12C renal; HCT-15 colon; A498 renal; CAKI-1 renal; RXF 393 renal; SNB-19 CNS; DU-145 prostate; HOP-92 NSCLC; MOLT-4 leukemia; IGROV1 ovarian; SK-MEL-2 melanoma; SNB-75 CNS; NCI/ADR-RES ovarian; UACC-62 melanoma.
Holding throughout (assay): growth of human tumour cells (NCI), 48 h

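96-well plates; 48 h exposure; 5 concentrations. Endpoints by linear interpolation between flanking doses. Not reached: highest tested concentration assigned. TGI: total growth inhibition.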 A value given as a limit tells only on which side of the number the result lay.

Turning to `COC(=O)c1sc(=S)sc1SCc1cccc(CSc2sc(=S)sc2C(=O)OC)c1`, the TGI with K-562 leukemia, with 786-0 renal, in the assay with PC-3 prostate, in the assay on U251 CNS, in the assay on SN12C renal and with HCT-15 colon was above 100 µM throughout. The TGI in the assay with A498 renal is 62.2 µM; in the assay on CAKI-1 renal, above 100 µM; with RXF 393 renal, 34.3 µM; in the assay on SNB-19 CNS it was 86.3 µM; in the assay on DU-145 prostate, above 100 µM; in the assay on HOP-92 NSCLC, 71.2 µM. The TGI was above 100 µM in the assay with MOLT-4 leukemia; above 100 µM in the assay with IGROV1 ovarian; above 100 µM in the assay with SK-MEL-2 melanoma; 26.6 µM with SNB-75 CNS; above 100 µM in the assay on NCI/ADR-RES ovarian; above 100 µM in the assay on UACC-62 melanoma.
For `Cc1nc2ccc(N=Nc3c(C)noc3C)cc2[nH]1`, the TGI with K-562 leukemia, in the assay with 786-0 renal, with PC-3 prostate, in the assay on U251 CNS, in the assay on SN12C renal and with HCT-15 colon was above 100 µM throughout. In addition, the TGI in the assay with A498 renal was 34.8 µM; in the assay on CAKI-1 renal it was 86.8 µM; in the assay on RXF 393 renal it was 52.4 µM; in the assay with SNB-19 CNS, above 100 µM; with DU-145 prostate it was above 100 µM; in the assay on HOP-92 NSCLC, 60.2 µM. The TGI was 58.5 µM in the assay on MOLT-4 leukemia; 34.3 µM in the assay on IGROV1 ovarian; above 100 µM with SK-MEL-2 melanoma; 32.9 µM with SNB-75 CNS; above 100 µM in the assay on NCI/ADR-RES ovarian; 75.9 µM with UACC-62 melanoma.
As for `CCOC(=O)c1cn(-c2ccc([N+](=O)[O-])cc2)c(=S)n2c1nc1ccccc12`, the TGI with K-562 leukemia, with 786-0 renal, with PC-3 prostate, in the assay with U251 CNS, in the assay with SN12C renal and in the assay with HCT-15 colon was above 100 µM in each case. Further, the TGI with A498 renal is 87.7 µM; in the assay on CAKI-1 renal, above 100 µM; in the assay on RXF 393 renal, above 100 µM; in the assay on SNB-19 CNS it was above 100 µM; in the assay with DU-145 prostate it was above 100 µM; in the assay on HOP-92 NSCLC, 57.1 µM. The TGI with MOLT-4 leukemia is 75.7 µM; with IGROV1 ovarian it was above 100 µM; in the assay on SK-MEL-2 melanoma, 76.7 µM; with SNB-75 CNS, above 100 µM; in the assay with NCI/ADR-RES ovarian, above 100 µM; in the assay on UACC-62 melanoma it was above 100 µM.

Source of the values: PubChem BioAssay (NCI).
